From US9604931B2, “Nuclear receptor binding agents” (GTx, Inc., priority 2007, dated 2017)
pEC50, pKi: −log10 of the molar value.

Key:
[1] = target: ERβ ligand binding domain (Homo sapiens, UniProt Q92731); test: Competitive [3H]-estradiol binding assay, ER-β (Example 21)
Method: ER binding affinity was determined via one of the following methods:
Briefly, the incubation mixture was filtered through a high affinity protein binding filter, and washed several times to remove any unbound radioactivity. The filter plate was air dried and sealed on the bottom.
Nonspecific binding was subtracted from total binding to yield specific binding.

[2] = target: ER-β (Rattus norvegicus (Rat), UniProt Q62986); test: ER-β transactivation (ERE-LUC) in COS or 293 cells; format: cell-based; settings: for activation at 0.1 µM: HEK293, 48 h, read-out: Estradiol activity at 100 nM of NRBA, ER-β, 100 nM compound compared to 1 nM estradiol
Sequence of ER-β (Q62986 whole entry): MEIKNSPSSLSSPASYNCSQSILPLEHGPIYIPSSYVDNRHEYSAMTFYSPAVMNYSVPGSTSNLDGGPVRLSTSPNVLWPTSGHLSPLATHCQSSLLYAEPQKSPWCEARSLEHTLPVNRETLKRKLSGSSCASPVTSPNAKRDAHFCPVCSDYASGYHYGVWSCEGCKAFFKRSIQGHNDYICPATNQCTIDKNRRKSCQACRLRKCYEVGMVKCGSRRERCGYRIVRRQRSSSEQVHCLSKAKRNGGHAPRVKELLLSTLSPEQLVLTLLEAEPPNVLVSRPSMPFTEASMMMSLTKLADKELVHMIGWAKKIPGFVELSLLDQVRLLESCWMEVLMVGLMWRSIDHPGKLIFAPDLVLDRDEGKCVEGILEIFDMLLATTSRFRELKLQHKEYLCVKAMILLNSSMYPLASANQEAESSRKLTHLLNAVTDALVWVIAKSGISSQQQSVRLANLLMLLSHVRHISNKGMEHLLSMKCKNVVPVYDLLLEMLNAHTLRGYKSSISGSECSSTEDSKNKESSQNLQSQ
Method: COS or 293 cells were plated in DME without phenol red+10% cs FBS at 90,000 cells per well in 24 well plates, and were transfected with 0.25 μg of the vector “ERE-LUC”, where a firefly luciferase gene was driven by two estrogen responsive elements and 0.02 μg of the control CMV-LUC, Renilla where a luciferase gene was driven by a CMV promoter. […] All the receptors were cloned from rat tissue into the PCR3.1 vector backbone. Twenty four hours post transfection, cells were treated with compounds of this invention, estrogen, DHT, and other NRBAs or combinations thereof. Cells were harvested 48 hrs after transfection, and assayed for firefly and Renilla luciferase activity.

[3] = tested on: Ishikawa endometrial cells; test: Ishikawa growth assay (ALP); format: cell-based; settings: for Concentration at which proliferation of Ishikawa cells was induced: highest concentration tested
Method: Ishikawa cells were plated at 15,000 cells/well in 24 well plates in DME:F12 (1:1)+5% csFBS w/o phenol red. The cells were maintained in this medium at 37° C. for 3 days. Medium was changed immediately prior to drug treatment for an additional 72 hrs. After 72 hrs, the cells were fixed with formalin and the amount of alkaline phosphatase (ALP) measured by para-nitrophenyl phosphate method.
This effect is one potential concern in the development of ER-α SERMs.

[4] = tested on: PPAR-γ; test: PPAR-γ transactivation (PPRE-LUC) in HEK-293 cells co-transfected with ER-β; format: cell-based
Method: FIG. 12 depicts the effect of ER-β ligand on PPAR-γ function through ligand binding domain (LBD). (A). HEK-293 cells were transfected with 0.25 μg PPRE-LUC, 5 ng CMV-renilla LUC and the indicated receptors (PPAR-γ and ER-β for the left panel and PPAR-α and ER-β for the right panel). The cells were treated 24 hrs after transfection with the indicated ligands and harvested 48 hrs after transfection and firefly luciferase activity was measured and normalized to renilla luciferase. (B). H475 in ER-β LBD is important for its function. H475 in ER-β LBD was mutated to alanine (A) using a site directed mutagenesis kit. Transactivation assay was performed as described in panel A in HEK-293 cells with a titration of ER-β ligands in wild type (WT) or ER-β H475A. (C). […] The cells were treated 24 hrs after transfection with the indicated ligands and harvested 48 hrs after transfection and firefly luciferase activity was measured and normalized to renilla luciferase. […] The cells were treated 24 hrs after transfection with the indicated ligands and harvested 48 hrs after transfection and firefly luciferase activity was measured and normalized to renilla luciferase. […] The cells were treated 24 hrs after transfection with the indicated ligands and harvested 48 hrs after transfection and firefly luciferase activity was measured and normalized to renilla luciferase. […]

[5] = tested on: rat aorta rings; test: Rat aortic ring relaxation; settings: 10^-6 PE constriction; for pEC50: Rattus norvegicus
From the text: Experimental protocol. Equipment used in these studies included a 4-tissue bath system with reservoirs and circulators (RadnotiGlass Technology, Monrovia, Calif.), DSI/Ponemah tissue force analyzer 7700 (Valley View, Ohio), and iWorx/CB Sciencesforce transducers FT-302. The 250 g rats were anesthetized with isoflurane to produce deep anesthesia. The chest of the rat was opened, and about 3 cm length of aorta was removed and placed in a Petri dish containing room temperature Krebs salt solution (KSS, in mM: 120 NaCl, 5 KCl, 1.2 MgSO4.7H20, 2.5 CaCl2.2H2O, 1 KH2PO4, 25 NaHCO3, and 11 glucose). Fat and connective tissue were removed from the aorta taking care not to stretch the vessel. The aorta was then divided into 3-mm-wide rings. Triangular wire holders were inserted through the lumen of the vessel and connected to the force transducer and tissue holder rod in the vessel bath.
Analog-to-digital conversions of force waveforms were accomplished with a DSI/Ponemah tissue force analyzer 7700. The converted data were automatically analyzed with Ponemah Physiology-Smooth Muscle software. All data are summarized as means±standard error. Differences between means were assessed by a conventional ANOVA. This was followed by Student's test. P<0.05 was considered to be statistically significant.
The tension on the rings was adjusted to 1.0 g passive force using the tension adjustment dial for each transducer and allowed to equilibrate for 60 min in the bath with a 95% O2-5% CO2 gas mixture. The rings were washed with fresh buffer every 20 min. Passive force was readjusted to 1.0 g as needed during this period. When rings were stable at 1.0 g of passive force, the baseline was calculated.
Phenylephrine (PE) at a final concentration of […] was added to the bath to contract the ring, and force was allowed to stabilize for 10 min. Then acetylcholine (ACH) at a final concentration of 10^−5 M was added to the precontracted rings to test for endothelial integrity […]. After the initial test for vessel viability and endothelial integrity, the rings were washed three times for 10 min with buffer, allowing it to equilibrate to active force stabilized at 1 g.
Cumulative concentration-response curves to NRBAs were created by increasing the NRBAs concentration in the tissue bath by successive addition of appropriate dilutions of stock solutions to achieve final bath concentrations of 300 nM to 0.15 mM NRBAs.
Table 10 summarizes EC50 values and maximal % decrease of the 10^−6 PE constriction of the aortic ring for individual NRBAs tested

[6] = tested on: Rat Aortic Smooth Muscle Cells (RASMC); test: RASMC cell proliferation assay (WST-1); format: cell-based; settings: for pEC50: Rattus norvegicus, inhibitory effect sigmoid Emax model, read-out: EC50 for inhibition of RASMC proliferation; for Proliferation of RASMC: concentration between 10-30 μM
Method: EC50 values were calculated using WinNonLin 5.0.1 using the inhibitory effect sigmoid Emax model.

Sequence of ERβ ligand binding domain (Q92731 whole entry, looked up, the tested form may be a part): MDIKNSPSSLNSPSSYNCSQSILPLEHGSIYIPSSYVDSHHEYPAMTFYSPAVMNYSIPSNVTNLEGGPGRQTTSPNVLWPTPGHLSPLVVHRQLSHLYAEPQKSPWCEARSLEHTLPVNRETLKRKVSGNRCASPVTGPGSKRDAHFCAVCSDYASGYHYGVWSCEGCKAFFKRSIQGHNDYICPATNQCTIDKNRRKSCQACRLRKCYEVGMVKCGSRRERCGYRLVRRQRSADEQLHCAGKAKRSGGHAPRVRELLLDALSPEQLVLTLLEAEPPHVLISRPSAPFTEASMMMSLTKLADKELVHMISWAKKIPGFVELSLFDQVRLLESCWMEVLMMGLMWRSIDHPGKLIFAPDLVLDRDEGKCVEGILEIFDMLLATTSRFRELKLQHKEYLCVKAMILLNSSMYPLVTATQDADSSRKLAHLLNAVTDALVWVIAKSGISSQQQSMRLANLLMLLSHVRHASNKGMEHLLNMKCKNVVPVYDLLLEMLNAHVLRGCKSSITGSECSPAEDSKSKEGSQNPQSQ

SMILES | inhibition at 0.1 µM ([1]; read-out: Percent Inhibition of [3H]-Estradiol Binding to ER-β) [%] | ER-β agonist activity [2] | activation at 0.1 µM [2] [%] | Ishikawa cell proliferation [3] | Concentration at which proliferation of Ishikawa cells was induced [3] [µM] | Troglitazone-induced PPAR-γ activity [4] | Mean of Maximal % Decrease of the PE constriction of the aortic ring [5] [%] | pEC50 [5] | pEC50 [6] | Proliferation of RASMC [6] | pKi ([1]; read-out: ER-β binding constant (Ki))
O=c1c2c(O)cc(O)cc2c(Br)cn1-c1ccc(O)cc1 [12u, 4-bromo-6,8-dihydroxy-2-(4-hydroxyphenyl)isoquinolin-1(2H)-one] | 96.7 | ER-β agonist activity | 85 | weakly induced Ishikawa cell proliferation | 1 | partially inhibited | 50.97 | 4.52 | 5.02 | inhibited the proliferation of RASMC in a dose-dependent manner | 
N#Cc1cn(-c2ccc(O)cc2)c(=O)c2c(O)cc(O)cc12 [14m, 6,8-dihydroxy-2-(4-hydroxyphenyl)-1-oxo-1,2-dihydroisoquinoline-4-carbonitrile] |  |  | 74.5 | weakly induced Ishikawa cell proliferation | 1 | partially inhibited | 94.49 | 5.12 | 5.10 | inhibited the proliferation of RASMC in a dose-dependent manner | 8.15
